# Data from patent US8354395B2, “Method for providing neuroprotection from spinal muscular atrophy” (Trophos, priority 2003, dated 2013).
# Legend:
# rat motor neurons = experiment: in vitro model of trophic deprivation of rat motor neurons (survival, calcein fluorescence); assay type: cell-based; conditions: 3 days in basal medium, compared with medium supplemented with neurotrophic factors, ratio > 0 = positive effect
# Description: The spinal cord of E14 rat embryos is dissected and the ventral part is isolated by trituration after trypsination. […] The cells are centrifuged on a density gradient. The motor neurons are enriched in the fraction of the large cells (the least dense). The cells of this fraction are incubated with an anti-p75 antibody, a surface antigen present on the motor neurons. Secondary antibodies coupled with magnetic balls are added and the mixture of cells is passed through a column in a magnet (Arce et al., 1999). Only the motor neurons are retained: their purity is of the order of 90%.
# The motor neurons are inoculated at low density in culture wells on a substrate of polyornithine-laminin in a neurobasal medium supplemented according to Raoul et al., 1999, Programmed cell death of embryonic motor neurons triggered through the Fas death receptor. […] Negative controls (absence of trophic factors) and positive controls (in the presence of BDNF (Brain-Derived Neurotrophic Factor) at 1 ng/ml, GDNF (Glial-Derived Neurotrophic Factor) at 1 ng/ml and CNTF (Ciliary Neurotrophic Factor) at 10 ng/ml, marketed by the American company PEPROTECH, Inc. and the Sigma-Aldrich company, are included in each series.
# The compounds to be tested are added 60 minutes after the inoculation and the cultures are maintained at 37° C. under 5% CO2 for 3 days.
# After 3 days, the survival is evaluated by a fluorescence measurement after incubation of the cells in the presence of calcein which becomes fluorescent in the living cells.
# The activity of the compounds to be tested was evaluated according to their capacity to prevent the death of the motor neurons when they are added to the neurobasal medium compared with the survival of the motor neurons in medium supplemented with neurotrophic factors.
# This survival rate is expressed by a number, the ratio.
# [1] = system: striatal neurons expressing truncated mutated huntingtin; experiment: protection of striatal neurons from death induced by overexpression of a mutated form of huntingtin; assay type: cell-based; conditions: 1 μM in 0.5% DMSO; 7 days; compared with medium supplemented with BDNF
# Description: Primary cultures of striatal neurons are prepared as described in the literature (Primary striatal neuronal culture, Mao L. et al., Methods Mol. Med., 2003, 79:379-86). […] A second expression vector containing the DNA coding the green fluorescent protein (GFP) also undergoes electroporation and serves as a reporter gene. The DNA of the plasmid coding the huntingtin was prepared by purification with cesium chloride. The plasmid containing the GFP sequence was prepared on Qiagen columns. The integrity of the DNA sequences is verified by sequencing, transfection and western blotting. The cells which survive the electroporation are inoculated at a density of 4000 cells per well of a 96-well plate. The culture takes place in Neurobasal medium (GIBCO) complimented with pyruvate and B-27 (Beckton Dickinson). The cells are maintained in culture for 7 days without changing the medium.
# The treatments with the compounds to be tested are carried out just after the inoculation at a final concentration of 1 μM in 0.5% of dimethyl sulphoxide (DMSO). The positive controls are carried out by the addition of BDNF at 5 ng/ml final. The negative controls only receive 0.5% DMSO.
# Cell death is evaluated after the 7 days by counting the number of living cells expressing the GFP.
# The activity of the compounds to be tested was evaluated by their capacity to prevent the death of the striatal neurons cultured in the neurobasal medium compared with the survival of the striatal neurons in medium supplemented with BDNF (Brain-Derived Neurotrophic Factor).
# GABAA receptors = experiment: electrophysiology in vitro with rat neurons (slices of hippocampus on MEA, sensitive neurons in patch clamp); assay type: cell-based; conditions: for effect on the stimulating GABAA transmission (postsynaptic field potentials, CA1): slices of hippocampus, 20 μM bicuculline, 50 μM picrotoxin, 1-10 μM diazepam, 10-1000 nM steroids
# Description: Electrophysiological experiments were carried out in vitro with rat neurons (slices of hippocampus, neurons sensitive in culture), as follows:
# The experiments are carried out with hippocampi removed from rats of the Sprague Dawley strain aged from 10 to 21 days. The animals are sacrificed by decapitation, and their brain is rapidly transferred into ACSF (Artificial Cerebro-Spinal Fluid) without sodium (composition: 2 mM KCl, 1.2 mM NaH2PO4, 2 mM MgCl2, 0.5 mM CaCl2, 26 mM NaHCO3, 11 mM glucose, 250 mM saccharose), maintained at a temperature of 4° C. and carbogen (a 95% O2, 5% CO2 mixture) is bubbled through. The hippocampi are extracted from each cerebral hemisphere then cut up into slices of […] thickness using a “tissue chopper”. The slices are left to rest in ACSF medium (composition: 126 mM NaCl, 2 mM KCl, 1.2 mM NaH2PO4, 2 mM MgCl2, 0.5 mM CaCl2, 26 mM NaHCO3, 11 mM glucose) at ambient temperature, at least one hour before recording. Using a pipette, one slice is then deposited on a multi-electrode recording system (MEA, MultiChannel Systems™, Germany) and positioned so as to cover the […]. In order to avoid any change in position by the perfusion flow, a grid weighted down by a platinum <<U>> is positioned on the slice. The MEA is then rapidly inserted into the recording system and the chamber perfused with ACSF with carbogen bubbled through; the middle of the chamber is connected to earth. The perfused ACSF as well as the MEA are maintained at a temperature of 37° C. One of the 60 electrodes is selected as a stimulation electrode. A biphasic stimulation current with an intensity of 300 μA over 0.1 ms is generated from this electrode at a rate of one stimulation every 30 seconds. The responses produced are seen simultaneously at the level of the 59 other electrodes of the MEA. The axons of the Schaeffer collaterals are stimulated in the CA3. In the CA1 region, 6 to 12 electrodes are selected in order to record the field potentials which correspond to the sum of the variations of the postsynaptic potentials of the neurons situated close to each electrode. The molecules tested are dissolved in the ACSF medium (the final concentration of DMSO is ≦0.1%) and carried over onto the slice by means of the perfusion system.
# The sensitive rat neurons are cultured for 1 to 2 days and then recorded with the patch clamp technique as described in De Roo M. et al. (Dehydroepiandrosterone potentiates native ionotropic ATP receptors containing the P2X2 subunit in rat sensory neurones, J Physiol, 2003, 552:59-71).
# [2] = system: motor neurons of the nucleus of the facial nerve; experiment: axotomy of the facial nerve in new-born rats, count of motor neurons of the facial nucleus; assay type: in vivo, rat; conditions: axotomized new-born rats; dose between 3 and 100 mg/kg according to the administration route; compared with the nerve which is not sectioned
# Description: An axotomy of the facial nerve is performed on new-born young rats of 2-3 days old. The animals receive the cholest-4-en-3-one oxime 4 hours before the unilateral section of the nerve then daily for 5 days by sub-cutaneous route. Seven days after the section of the nerve, the animals are anaesthetized, then fixed by intra-cardial perfusion of paraformaldehyde. The brain is then removed and placed in paraffin. The histological analysis of compound sections of 7 μm of the nucleus of the facial nerve, stained with cresyl violet, allows the number of motor neurons of the intact side as well as of the side of the nerve which has been sectioned to be counted (Casanovas et al., Prevention by lamotrigine, MK-801 and N omega-nitro-L-arginine methyl ester of motoneuron cell death after neonatal axotomy, Neuroscience, 1996, 71, 313-325).
# [3] = toxicological study in mice; assay type: in vivo; conditions: oral, sub-cutaneous, intra-peritoneal and intravenous routes, up to 300 mg/kg/day, daily up to 28 days
molecule,measurement,setting,value
"CC[C@H](CC[C@@H](C)[C@H]1CC[C@H]2[C@@H]3CCC4=CC(=NO)CC[C@]4(C)[C@H]3CC[C@]12C)C(C)C [Compound 8, 4-stigmasta-ene-3-one oxime]",Ratio (survival rate of the motor neurons),rat motor neurons; 10 μM,0.3
"CC(C)=CCC[C@@H](C)[C@H]1CC[C@H]2[C@@H]3CCC4=CC(=NO)CC[C@]4(C)[C@H]3CC[C@]12C [Compound 6, 4,24-cholestadien-3-one oxime]",Ratio (survival rate of the motor neurons),rat motor neurons; 5 μM,0.5
"CC(C)CCC[C@@H](C)[C@H]1CC[C@H]2[C@@H]3C=C[C@H]4CC(=O)CC[C@]4(C)[C@H]3CC[C@]12C [Compound 11, 5-alpha-cholest-6-en-3-one]",Ratio (survival of striatal neurons),[1],0.3
"CC(C)=CCC[C@@H](C)[C@H]1CC[C@H]2[C@@H]3CCC4=CC(=O)CC[C@]4(C)[C@H]3CC[C@]12C [Compound 4, Cholest-4,24-dien-3-one]",Ratio (survival of striatal neurons),[1],0.2
"CC(C)CCC[C@@H](C)[C@H]1CC[C@H]2[C@@H]3C=CC4=CC(=NO)C=C[C@]4(C)[C@H]3CC[C@]12C [Compound 17, 1.4,6-cholesta-trien-3-one oxime]",Ratio (survival rate of the motor neurons),rat motor neurons; 5 μM,0.3
"CC(C)[C@@H](C)C=C[C@@H](C)[C@H]1CC[C@H]2[C@@H]3C=CC4=CC(=NO)CC[C@]4(C)[C@H]3CC[C@]12C [Compound 15, 4.6, 22-ergosta-trien-3-one oxime]",Ratio (survival rate of the motor neurons),rat motor neurons; 5 μM,0.2
"CC(C)CCC[C@@H](C)[C@H]1CC[C@H]2[C@@H]3CCC4=CC(=NO)C=C[C@]4(C)[C@H]3CC[C@]12C [Compound 2, 1,4-cholestadien-3-one oxime]",Ratio (survival rate of the motor neurons),rat motor neurons; 5 μM,0.6
C[C@]12CC[C@@H](O)C[C@@H]1CC[C@@H]1[C@@H]2CC[C@]2(C)[C@@H](C(=O)CO)CC[C@@H]12 [tetrahydrodeoxycorticosterone],"effect on the stimulating GABAA transmission (postsynaptic field potentials, CA1)",GABAA receptors,potentialized
"CC(C)CC=C[C@@H](C)[C@H]1CC[C@H]2[C@@H]3CCC4=CC(=NO)CC[C@]4(C)[C@H]3CC[C@]12C [Compound 7, 4,22-cholestadien-3-one oxime]",Ratio (survival rate of the motor neurons),rat motor neurons; 6 μM,0.25
"CC(=O)[C@H]1CC[C@H]2[C@@H]3CC[C@H]4C[C@H](O)CC[C@]4(C)[C@H]3CC[C@]12C [allopregnanolone, 3α-hydroxy-5α-pregnan-20-one]",effect on chlorine currents produced by isoguvacine,"GABAA receptors; sensitive neurons, patch-clamp",potentialized
same,"effect on the stimulating GABAA transmission (postsynaptic field potentials, CA1)",GABAA receptors,potentialized
picrotoxin,"effect on the stimulating GABAA transmission (postsynaptic field potentials, CA1)",GABAA receptors,blocked
"CC(C)CCC[C@@H](C)[C@H]1CC[C@H]2[C@@H]3CC[C@]4(O)CC(=O)CC[C@]4(C)[C@H]3CC[C@]12C [Compound 9, 5-beta-hydroxy-cholestan-3-one]",Ratio (survival of striatal neurons),[1],0.5
same,Ratio (survival rate of the motor neurons),rat motor neurons; 1 μM,0.5
"CC(C)CCC[C@@H](C)[C@H]1CC[C@H]2[C@@H]3CCC4=CC(=NO)CC[C@]4(C)[C@H]3CC[C@]12C [Compound 1, Cholest-4-en-3-one oxime]",increase of survival of the motor neurons of the nucleus of the facial nerve,[2],up to 40%
same,Ratio (survival of striatal neurons),[1],0.3
same,blocking of the effect of positive allosteric modulators of the GABAA receptors,"GABAA receptors; allopregnanolone or tetrahydrodeoxycorticosterone as modulators, dose-dependent, concentrations equivalent to those with neurotrophic effects in vitro",capable of blocking
same,"effect on the GABAA receptors, compound alone","GABAA receptors; tested alone up to 10 μM, slice of hippocampus or sensitive neurons",no effect
same,toxicity,[3],did not show significant toxicity
same,Ratio (survival rate of the motor neurons),rat motor neurons; 5 μM,1
"CC(C)C(C)C=C[C@@H](C)[C@H]1CC[C@H]2[C@@H]3C=CC4=CC(=O)CC[C@]4(C)[C@H]3CC[C@]12C (stereo partly shown) [Compound 12, 24-methylcholest-4,6,22-trien-3-one]",Ratio (survival of striatal neurons),[1],0.3
CN1C(=O)CN=C(c2ccccc2)c2cc(Cl)ccc21 [diazepam],"effect on the stimulating GABAA transmission (postsynaptic field potentials, CA1)",GABAA receptors,potentialized
